Read-outs that look alike come from different tables or passages of the source.
Key:
CYP3A4 [1] = test system: CYP3A4; design: method as in PMID 16205037, PMID 30477963; conditions: cited from earlier work
[2] = DDI study: pharmacokinetics of zanubrutinib in rats alone or with fluconazole / isavuconazole; type: in vivo, Sprague–Dawley (SD) rats; conditions: for AUC(0-inf) / AUC(0-t) / Cmax / Tmax / half-life / CL/F / MRT last / MRT inf / Vd/F: rat, plasma, po, zanubrutinib 30 mg/kg gavage, n = 6, mean ± SD; for CL/F: read-out: CLz/F (converted); for MRT last: read-out: MRT(0−t); for MRT inf: read-out: MRT(0−∞); for Vd/F: read-out: Vz/F; for time to peak: in h (unit assumed); for peak plasma concentration: in ng/mL; for area under the curve: in µg·h/L
Experimental: The separation procedures were processed using a Shim-pack velox C18 column (2.1 × 50 mm, 2.7 μm) at 40 degrees Celsius. The mobile phases were 0.1% formic acid-water and methanol. The gradient elution mode (each injection = 3 min) was applied as follows: the first 0-0.5 min was maintained at 10% methanol, followed by linearly increasing to 80% methanol (0.5–0.8 min) and keeping 80% methanol for 0.8–1.5 min. […] At the stage of the analysis process, the sample injection volume and flow rate were set as 2 µL and 0.4 mL/min, respectively.
Triple quadrupole mass spectrometry (Shimadzu Corp., Tokyo, Japan) was utilized for sample detection. The parameters for this procedure were set as follows: the detector voltage, heating block temperature, flow of atomizing gas, and drying gas were set as 4.5 kV, 400 °C, 3 L/min and 5 L/min, respectively. Multiple reaction monitoring (MRM) mode was performed to detect the precursor and product ions of the IS and analyte. The first and second signal strength product ions were applied to quantitation and qualification, respectively, to ensure the specificity of the detection. In addition, the retention times of the IS and analyte were also considered to further improve the detection specificity.
Eighteen SD rats were randomly split into three groups (Groups A-C). […] The same dose (0.5% CMC-Na) was administered to Group A (control group). After half an hour, each rat was treated with 30 mg/kg zanubrutinib. Thereafter, rat blood samples (0.3 mL) from the caudal vein at a series of time points (0.083, 0.5, 1, 2, 3, 4, 5, 6, 8, and 12 h) were collected in heparin tubes. The blood samples were centrifuged at 13,000 × g for 10 min at 4 °C, followed by separation of plasma and storage at -80 °C.
Prior to the experiment, the − 80 °C stored rat plasma samples were placed at room temperature for thawing. At the protein precipitation stage, 40 µL IS, 200 µL acetonitrile, and 100 µL plasma were collectively added to a 1.5 mL centrifuge tube, vortexed to mix thoroughly, and centrifuged at 12,000 × g for 10 min. Afterwards, 100 µL supernatant was transferred to a centrifuge tube and gently mixed with 100 µL ultrapure water for UHPLC–MS/MS analysis.

[3] = design: method as in PMID 31340982; conditions: cited from earlier work
[4] = Stability of zanubrutinib in rat plasma under different storage conditions; type: in vitro ADME; conditions: for Stability in rat plasma, RE(%): n = 6
Experimental: Under a series of storage conditions, each concentration of rat plasma QC samples (2, 40 and 800 ng/mL) was evaluated in 6 replicates to explore the stability of the method. This experiment determines the stabilities of the QC samples during analyses and different storage conditions. […] The testing results with RSD% (< 15%) and RE% (± 15%) were considered stable.

[5] = test system: IL-2-induced kinase (ITK); design: method as in PMID 31171645; conditions: compared to ibrutinib; cited from earlier work
CYP3A4 [6] = test system: CYP3A4; design: method as in PMID 34252374; conditions: in vitro experiments; to phenoxy phenyl hydroxylation metabolites; cited from earlier work
BTK = test system: BTK; design: method as in PMID 31340982; conditions: peripheral blood mononuclear cells (PBMCs) and peripheral lymph nodes in patients with B-cell lymphoma; cited from earlier work
[7] = design: method as in PMID 31875923; conditions: healthy volunteers, combined with itraconazole (CYP3A4 inhibitor); cited from earlier work
[8] = single administration of 320 mg
[9] = Sprague-Dawley, 30 mg/kg, rats, Group A: the control group (0.5% CMC-Na)
[10] = Sprague-Dawley, 30 mg/kg, rats, Group B: 20 mg/kg isavuconazole
[11] = Sprague-Dawley, 30 mg/kg, rats, Group C: 20 mg/kg fluconazole
[12] = rats, zanubrutinib (30 mg/kg) alone
[13] = rats, zanubrutinib (30 mg/kg) coadministered with fluconazole (20 mg/kg)
[14] = rats, zanubrutinib (30 mg/kg) coadministered with isavuconazole (20 mg/kg)

## C[C@@H](c1nc(-c2ccc(C#N)cc2)cs1)[C@](O)(Cn1cncn1)c1cc(F)ccc1F [isavuconazole]
CYP3A4 [1]
  CYP3A4 inhibition: CYP3A4 enzyme inhibitors
[2]; rats, 20 mg/kg antifungal by gavage half an hour before 30 mg/kg zanubrutinib
  inhibitory effect on the metabolism of zanubrutinib: obvious inhibitory effect

## C=CC(=O)N1CCC([C@@H]2CCNc3c(C(N)=O)c(-c4ccc(Oc5ccccc5)cc4)nn32)CC1 [zanubrutinib]
[3]; patients with malignant lymphoma, oral administration
  time of peak concentration (Tmax): approximately 2 h
[3]; [8]
  mean half-life (t1/2): approximately 4 h
  mean peak concentration (Cmax): 658 ng/mL
[4]; 4 °C (24 h), 2 ng/mL
  Stability in rat plasma, RE(%): 1.3%
[4]; 4 °C (24 h), 40 ng/mL
  Stability in rat plasma, RE(%): 1.4%
[4]; 4 °C (24 h), 800 ng/mL
  Stability in rat plasma, RE(%): 1.0%
[4]; -80 °C (long-term), 2 ng/mL
  Stability in rat plasma, RE(%): 2.5%
[4]; -80 °C (long-term), 40 ng/mL
  Stability in rat plasma, RE(%): 1.5%
[4]; -80 °C (long-term), 800 ng/mL
  Stability in rat plasma, RE(%): 4.0%
[4]; Room temperature (4 h), 2 ng/mL
  Stability in rat plasma, RE(%): -0.2%
[4]; Room temperature (4 h), 40 ng/mL
  Stability in rat plasma, RE(%): -1.4%
[4]; Room temperature (4 h), 800 ng/mL
  Stability in rat plasma, RE(%): -2.3%
[4]; Three freeze‒thaw, 2 ng/mL
  Stability in rat plasma, RE(%): -1.8%
[4]; Three freeze‒thaw, 40 ng/mL
  Stability in rat plasma, RE(%): 2.6%
[4]; Three freeze‒thaw, 800 ng/mL
  Stability in rat plasma, RE(%): -0.4%
[4]; room temperature, 4 degrees Celsius refrigeration, freeze thawing, cryopreservation for long-term
  stability in plasma under the assessed storage conditions: stable
[5]
  times lower at inhibiting IL-2-induced kinase (ITK) than ibrutinib: more than 20 times
CYP3A4 [6]
  enzyme primarily metabolizing zanubrutinib: CYP3A4
BTK
  efficacy of BTK inhibition: ~100%
[7]
  AUC increased to (combined with itraconazole): 143%
  Cmax increased to (combined with itraconazole): 154%
[2]; Sprague-Dawley, 30 mg/kg, a rat plasma sample obtained 1 h after oral administration of zanubrutinib
  concentration at 1 h: 230 ng/mL
[2]; [9]
  AUC(0-inf): 1090 ± 44.2 ng·h/mL
  AUC(0-t): 1080 ± 43.8 ng·h/mL
  Cmax: 332 ± 52.8 ng/mL
  Tmax: 1.83 ± 0.41 h
  half-life: 80.4 ± 6.6 min
  CL/F: 461 mL/min/kg
  MRT last: 2.71 ± 0.1 h
  MRT inf: 2.76 ± 0.09 h
  Vd/F: 53.2 ± 3.64 L/kg
[2]; [10]
  AUC(0-inf): 1270 ± 78 ng·h/mL
  AUC(0-t): 1270 ng·h/mL
  Cmax: 396 ± 37.2 ng/mL
  Tmax: 2 h
  half-life: 85.2 ± 33.6 min
  CL/F: 394 mL/min/kg
  MRT last: 2.76 ± 0.07 h
  MRT inf: 2.82 ± 0.09 h
  Vd/F: 49 ± 21.1 L/kg
[2]; [11]
  AUC(0-inf): 1730 ± 218 ng·h/mL
  AUC(0-t): 1720 ± 219 ng·h/mL
  Cmax: 495 ± 131 ng/mL
  Tmax: 2.17 ± 0.41 h
  half-life: 82.2 ± 9.6 min
  CL/F: 293 mL/min/kg
  MRT last: 2.95 ± 0.14 h
  MRT inf: 3 ± 0.14 h
  Vd/F: 34.8 ± 6.57 L/kg
[2]; [12]
  time to peak: 1.83 ± 0.41
  peak plasma concentration: 332.00 ± 52.79
  area under the curve: 1081.67 ± 43.81
[2]; [13]
  time to peak: 2.17 ± 0.41
  peak plasma concentration: 494.51 ± 130.68
  area under the curve: 1721.61 ± 219.36
[2]; [14]
  time to peak: 2.00 ± 0.00
  peak plasma concentration: 396.05 ± 37.19
  area under the curve: 1267.55 ± 79.35

## OC(Cn1cncn1)(Cn1cncn1)c1ccc(F)cc1F [fluconazole]
CYP3A4 [1]
  CYP3A4 inhibition: CYP3A4 enzyme inhibitors

Source: article PMC10469817, “A novel UHPLC‒MS/MS method for quantitative analysis of zanubrutinib in rat plasma: application to an in vivo interaction study between zanubrutinib and triazole antifungal” (BMC Chemistry, 2023)
